From publication PMC10584496, “Brazilin from Caesalpinia sappan L. as a Proprotein Convertase Subtilisin/Kexin Type 9 (PCSK9) Inhibitor: Pharmacophore-Based Virtual Screening, In Silico Molecular Docking, and In Vitro Studies” (Advances in Pharmacological and Pharmaceutical Sciences, 2023)

Target: T1, Proprotein convertase subtilisin/kexin type 9 (PCSK9) (Homo sapiens, UniProt Q8NBP7)
T1 construct: His-tagged recombinant PCSK9 wild type
Assay: CircuLex PCSK9-LDLR in vitro binding assay kit (plate-based, ELISA-type)

T1 sequence (Q8NBP7 31-152): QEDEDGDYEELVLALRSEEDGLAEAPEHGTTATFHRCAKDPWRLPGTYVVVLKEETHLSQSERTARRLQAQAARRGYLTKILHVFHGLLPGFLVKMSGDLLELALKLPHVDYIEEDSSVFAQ
T1 sequence (Q8NBP7 153-692): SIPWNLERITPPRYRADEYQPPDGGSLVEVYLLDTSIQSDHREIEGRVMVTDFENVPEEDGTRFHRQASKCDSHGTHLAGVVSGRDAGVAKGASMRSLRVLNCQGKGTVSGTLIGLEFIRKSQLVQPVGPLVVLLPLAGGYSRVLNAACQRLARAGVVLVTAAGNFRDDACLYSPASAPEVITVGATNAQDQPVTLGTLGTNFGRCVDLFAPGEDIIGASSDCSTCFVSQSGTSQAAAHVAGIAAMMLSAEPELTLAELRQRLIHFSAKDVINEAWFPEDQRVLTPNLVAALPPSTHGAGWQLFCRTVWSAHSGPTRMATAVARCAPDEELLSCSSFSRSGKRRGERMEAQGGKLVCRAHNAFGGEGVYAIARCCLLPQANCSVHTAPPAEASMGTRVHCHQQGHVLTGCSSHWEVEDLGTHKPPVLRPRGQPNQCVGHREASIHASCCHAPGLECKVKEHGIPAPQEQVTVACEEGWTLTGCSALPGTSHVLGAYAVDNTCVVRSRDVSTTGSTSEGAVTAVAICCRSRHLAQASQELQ
T1 sequence (P01130 22-860 partner): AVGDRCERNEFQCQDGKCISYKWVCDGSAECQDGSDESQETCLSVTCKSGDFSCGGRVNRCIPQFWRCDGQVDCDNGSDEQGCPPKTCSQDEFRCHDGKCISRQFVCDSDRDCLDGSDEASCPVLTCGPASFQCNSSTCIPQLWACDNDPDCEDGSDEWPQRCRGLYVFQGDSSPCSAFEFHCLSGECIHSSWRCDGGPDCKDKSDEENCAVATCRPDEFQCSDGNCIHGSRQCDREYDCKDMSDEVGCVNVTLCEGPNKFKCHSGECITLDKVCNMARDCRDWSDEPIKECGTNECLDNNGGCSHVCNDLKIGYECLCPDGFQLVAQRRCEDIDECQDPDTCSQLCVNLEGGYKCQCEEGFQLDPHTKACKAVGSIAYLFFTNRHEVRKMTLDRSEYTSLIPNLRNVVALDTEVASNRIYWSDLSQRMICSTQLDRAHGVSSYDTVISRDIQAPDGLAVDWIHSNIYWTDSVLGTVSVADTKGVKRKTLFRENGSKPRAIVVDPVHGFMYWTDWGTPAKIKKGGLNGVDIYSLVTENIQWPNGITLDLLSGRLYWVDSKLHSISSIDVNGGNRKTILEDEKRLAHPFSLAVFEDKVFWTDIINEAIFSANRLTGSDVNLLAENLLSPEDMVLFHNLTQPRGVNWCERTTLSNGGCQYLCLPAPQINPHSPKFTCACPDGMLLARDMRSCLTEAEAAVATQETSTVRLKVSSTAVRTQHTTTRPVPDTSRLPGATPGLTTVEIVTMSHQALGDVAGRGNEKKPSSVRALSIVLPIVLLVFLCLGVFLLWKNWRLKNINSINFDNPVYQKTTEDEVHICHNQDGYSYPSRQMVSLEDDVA

For `Oc1ccc2c(c1)OC[C@]1(O)Cc3cc(O)c(O)cc3[C@H]21` [brazilin], the IC50 was 2190 nM.
